Assay results: publication PMC9865645, “The Impact of N^ε-Acryloyllysine Piperazides on the Conformational Dynamics of Transglutaminase 2” (International Journal of Molecular Sciences, 2023)

What was measured:
self-produced hTGase 2 = biological target: T1, self-produced hTGase 2 (Homo sapiens, UniProt P21980); experiment: native (GTP-)PAGE: conformational species of hTGase 2; conditions: pre-incubation with 500 µM GTPγS
T1 construct: thrombin cleavage site (N); made in house; host or cells: E. coli BL21(DE3)
T1 sequence (P21980 1-687): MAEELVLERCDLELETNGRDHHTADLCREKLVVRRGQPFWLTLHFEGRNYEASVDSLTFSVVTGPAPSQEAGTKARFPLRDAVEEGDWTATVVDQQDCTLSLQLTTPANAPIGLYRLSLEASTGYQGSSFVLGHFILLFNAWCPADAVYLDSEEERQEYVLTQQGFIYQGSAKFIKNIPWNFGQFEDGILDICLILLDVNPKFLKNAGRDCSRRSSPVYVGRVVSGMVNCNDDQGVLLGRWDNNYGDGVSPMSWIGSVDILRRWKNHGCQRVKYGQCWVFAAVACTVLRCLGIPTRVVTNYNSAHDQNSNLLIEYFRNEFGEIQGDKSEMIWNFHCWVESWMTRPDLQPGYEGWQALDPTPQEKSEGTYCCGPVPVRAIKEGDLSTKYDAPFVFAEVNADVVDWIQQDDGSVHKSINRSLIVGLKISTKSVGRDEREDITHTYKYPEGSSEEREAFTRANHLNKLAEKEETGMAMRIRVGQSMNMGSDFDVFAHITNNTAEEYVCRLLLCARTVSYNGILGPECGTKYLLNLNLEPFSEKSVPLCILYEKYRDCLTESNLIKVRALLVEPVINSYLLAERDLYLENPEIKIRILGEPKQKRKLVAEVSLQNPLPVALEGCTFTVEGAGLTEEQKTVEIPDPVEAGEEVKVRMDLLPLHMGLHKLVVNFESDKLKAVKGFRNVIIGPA
Experimental: Figure 7 Influence of inhibitors 1–3 on the activity and conformation of hTGase 2 in the absence and presence of Ca^2+ or/and GTPγS. Native (GTP-)PAGE was performed on 7% separating gels. The gel and the running buffer contained either no GTP (A) or 50 µM GTP (B). Samples of 8.23 µM self-produced hTGase 2 were incubated for 30 min at 20 °C in 100 mM MOPS pH 8.0, 100 mM NaCl, 5.33% (v/v) glycerol with CaCl2, DMSO or inhibitors 1–3 (2.12% DMSO), and GTPγS as indicated. After adding native loading buffer, 6 µL of each sample containing 3 µg of hTGase 2 was loaded onto the gel. After the electrophoretic separation, gels were stained with Coomassie Brilliant Blue G250, scanned, and the protein bands were quantified (Figure S6 in Supplementary Materials). […]
Sodium dodecyl sulfate-PAGE (SDS-PAGE) and native PAGE were performed on 4% stacking and 7% separating gels using Laemmli buffers (60 min with 120 V, 300 mA and 30 W at room temperature) and the same buffers without SDS (80 min with 120 V, 50 mA and 30 W at 4 °C), respectively. […] Afterward, the gels were scanned using a LI-COR Odyssey Fc Imager (700 channel) and analyzed using Image Studio software version 5.2.5. Detected bands were quantified based on the general procedure published by Wagstaff et al. and as detailed in legends to Figures S5 and S6. […]

His6-hTGase 2 = biological target: T2, His6-hTGase 2 (Homo sapiens, UniProt P21980); experiment: fluorimetric activity assay (substrate Z-Glu(HMC)-Gly-OH) for kinact/KI; assay type: biochemical; conditions: mean (SEM) of two to four experiments
T2 construct: purchased Zedira (Darmstadt, Germany) T022, lot 0716a
T2 sequence (P21980 1-687): T1 sequence (P21980 1-687)

kinact/KI (His6-hTGase 2) [M⁻¹ s⁻¹]	SMILES	effect on migrating hTGase 2 species (self-produced hTGase 2)
–	Nc1nc2c(ncn2[C@@H]2O[C@H](COP(=O)(O)OP(=O)(O)OP(O)(O)=S)[C@@H](O)[C@H]2O)c(=O)[nH]1 [GTPγS]	favors the fast migrating hTGase 2 species
8340	C=CC(=O)NCCCC[C@H](NC(=O)Cc1ccccc1I)C(=O)N1CCN(c2ccc([N+](=O)[O-])nc2)CC1 [Compound 2, N^α-(2-Iodophenylacetyl)-N^ε-acryloyl-L-lysin-4-(2-nitropyridin-5-yl)piperazide]	–
